Where two headings read alike, the source gives them in different places.
Assays:
[1] = 7-10 day course of high dose oral Prednisone in poorly controlled asthmatics; format: in vivo, human; details: Post-Pn
Description: 10 poorly controlled asthmatics received a 7-10 day course of high dose oral Prednisone (20-30 mg po bid). Following prednisone treatment, PBMC's were obtained as generally described in Experiment 1 and the whole cell GR number (sites/cell) and binding affinity (Kd, nmol/l) were determined using techniques generally described in Experiment 1. In addition, spirometry and serum ECP levels were measured pre- and post-Prednisone treatment. […]

[2] = FEV1 response of SS and SR asthma patients to a 1 week course of oral prednisone; format: in vivo, human
Excerpt: Patients with a diagnosis of asthma, based on American Thoracic Society criteria, were selected for evaluation. […]. Patients were excluded if they had evidence for other types of lung disease, pregnancy, suspected noncompliance with medical care, or concurrent therapy with medications that alter glucocorticoid metabolism, such as anti-convulsants or erythromycin. A complete set of pulmonary function tests with lung volume, methacholine bronchial challenge, and diffusion capacity/total lung capacity ratio were obtained if the diagnosis of asthma required confirmation.
Patients were classified as SS or SR based on their prebronchodilator morning FEV1 and their response to a course of oral prednisone. […] All SR asthma patients had glucocorticoid pharmacokinetic studies to exclude those patients with an abnormality in prednisone absorption or metabolism.

PBMC from normal donors = details: MPN 10^-6 to 10^-9 M, 72 hours
Description: PBMC were then analyzed for GR-binding parameters or capacity to proliferate in the absence and presence of methylprednisone (MPN). […] After 72 hours of incubation, proliferation was measured by [^3 H]TdR incorporation (1 μCi/well, 6.7 Ci/mmol; ICN, Irvine, Calif.) during the last 6 hours of culture. Proliferation response was measured as the percent of control incorporation of [^3 ]TdR using the formula: [formula] GR-Binding Studies
PBMC from four normal donors were preincubated in the absence and presence of IL-2+IL-4, or IL-2 alone, for 48 hours and then subsequently stimulated with PMA (0.01 μM) and I (0.05 μM) in the presence and absence of MPN ranging in concentration from 10^-6 to 10^-9 M for another 72 hours. […] Each point represents the mean±SEM.

Compound | GR Number ([1]; PBMC, 10 poorly controlled asthmatics, Pre-Pn 8029 ± 1875, p 0.024) [sites/cell] | ECP ([1]; serum, Pre-Pn 16.1 ± 1.9, p 0.045) [µg/L] | FEV1 /FVC Ratio ([1]; Pre-Pn 0.60 ± 0.02, p 0.014) | FEV1 ([1]; Pre-Pn 63.8 ± 3.2%, p 0.008) [% predicted] | FEV1 after steroid burst ([2]; SR asthma patients (n 17), FEV1 before BD 58 % predicted) | FEV1 after steroid burst ([2]; SS asthma patients (n 12), FEV1 before BD 47 % predicted) | effect of MPN on PMA/I-induced proliferation (PBMC from normal donors; PBMC preincubated 48 hours in culture medium alone) | effect of MPN on PMA/I-induced proliferation (PBMC from normal donors; PBMC preincubated 48 hours with IL-2+IL-4, compared with medium alone)
C[C@]12C=CC(=O)C=C1CC[C@@H]1[C@@H]2C(=O)C[C@@]2(C)[C@H]1CC[C@]2(O)C(=O)CO [Prednisone] | 3575 ± 1094 | 10.8 ± 1.2 | 0.70 ± 0.01 | 82.6 ± 4.4 | 57 | 82 | – | –
methylprednisone [MPN] | – | – | – | – | – | – | significant dose-dependent inhibition of proliferation | significantly decreased inhibitory effect
